pEC50, pIC50, pKi: −log10 of the molar value.
What was measured:
[1] = tested on: STING-mediated interferon (IFN) signal reporter gene in THP1-Blue™ ISG cells; assay: STING-mediated interferon (IFN) signal SEAP reporter gene assay in THP1-Blue ISG cells; format: cell-based, human; conditions: for pEC50: 16 h incubation, SEAP reporter read at OD620nm; for Emax (OD620nm): highest OD620nm value generated by stimulation of the compound, 16 h; for agonistic effect on the STING-mediated Interferon (IFN) signal pathway: result in words
Text: In this experiment, the activity of the SEAP (secreted embryonic alkaline phosphatase) reporter gene regulated by the IFN regulatory factor (interferon regulatory factor) was detected in the THP1-Blue™ ISG cells (InvivoGen) to evaluate the agonistic effect of the compounds to be tested on the STING-mediated IFN signal pathway at the cellular level.
The THP1-Blue™ ISG cells (InvivoGen) in the logarithmic phase were centrifuged, and resuspended in a cell culture solution to a density of 2×10^6 cells/ml. The cell suspension was inoculated in a 96-well cell culture plate (Corning) at 50 μL/well. The mother liquor of the compound to be tested was gradiently diluted with a cell culture solution to obtain a 2× working concentration diluted solution (control compounds 1 and 2 were diluted at a 3-fold gradient: 200, 66.67, 22.22, 7.41, 2.47, 0.82, 0.27 and 0 μM; compounds 1, 2, 4, 6, 8, and 23 were diluted at a 8-fold gradient: 60, 7.5, 0.94, 0.12, 0.015, 0.0018, 0.00023 and 0 μM; and compounds 3 and 5 were diluted at a 10-fold gradient: 10, 1, 0.1, 0.01, 0.001, 0.0001, 0.00001 and 0 μM). The 2× working concentration diluted solution of the compound was added into a 96-well plate (50 μl of the culture solution containing 2% DMSO was added into the negative control well) at 50 μL/well. The culture plate was then placed in a cell incubator, and incubated for 16 h. After the cell incubation, 10 μL of the cell culture supernatant was transferred to a 96-well plate, and a QUANTI-Blue (InvivoGen) solution was added at 90 μL/well. The cells were incubated at 37° C. for 3 h. The absorbance at 620 nm (OD620nm) was read with a microplate reader.
In the table, EC50 refers to the concentration of a compound when ODM620nm value generated by stimulation of the compound reaches half of Emax; and Emax refers to the highest OD620nm value generated by stimulation of the compound.

[2] = tested on: STING and its downstream proteins TBK1 and IRF3 in THP-1 cells; assay: Western blotting of phosphorylation of STING signal pathway proteins in human THP-1 cells; format: cell-based; conditions: 3 hours, protein blotting, FIGS. 1-5, result in words
Text: In this experiment, the changes in the phosphorylation levels of STING and its downstream proteins TBK1 (TANK-binding kinase 1) and IRF3 (interferon regulatory factor 3) were detected by protein blotting to evaluate the agonistic effect of the test compounds on the STING signal pathway at the cellular level.
The THP-1 cells in the logarithmic phase were centrifuged, and resuspended in a cell culture solution to a density of […]. The cell suspension was inoculated into a 12-well cell culture plate (Corning) at 0.5 mL/well. The compound to be tested was diluted with a cell culture solution to 2× working solution concentration (control compounds 1 and 2: 60 μM; compounds 1 and 3: 0.6 μM, 6 μM, and 60 μM; compounds 2, 4, 6 and 8: 6 μM, 20 μM, and 60 μM). 0.5 mL of the diluted solution of the compound was added into a 12-well plate (500 μl of the culture solution containing 2% DMSO was added into the negative control well), and the plate was incubated in a cell incubator for 3 hours. After the incubation, the cells were collected by centrifugation, lysed with 60 μL cell lysis buffer (CST) for 30 minutes, and centrifuged at 12,000 rpm for 15 minutes. The supernatant was collected to determine the protein concentration, and then an appropriate amount of 5× protein loading buffer was added. The mixture was heated at 95° C. for 10 minutes to prepare a protein electrophoresis sample. Finally protein blotting was performed to detect the phosphorylation level of the corresponding protein. The primary antibodies used in the protein blotting were purchased from CST: STING (D2P2F) rabbit mAb, Phospho-STING (Ser366) rabbit mAb, Phospho-IRF3 (Ser396) (D601M) rabbit mAb, IRF3 (D83B9) rabbit mAb, TBK1/NAK (D1B4) rabbit mAb, Phospho-TBK1/NAK (Ser172) (D52C2) XP® rabbit mAb, and GAPDH (D16H11) rabbit mAb; and the secondary antibody horseradish peroxidase-conjugated goat anti-rabbit IgG (H+L) was purchased from Zsgb-bio.

[3] = tested on: STING pathway cytokine hIFN-β in human THP-1 cells; assay: ELISA of STING pathway cytokine hIFN-β expression in human THP-1 cells; format: cell-based; conditions: 8 hours, ELISA; for pEC50: hIFN-β expression; for Emax: highest expression of hIFN-β
Text: In this experiment, the expression of STING signal pathway cytokine hIFN-β was detected in THP1 cells (Nanjing Cobioer) by the ELISA method, so as to evaluate the agonistic effect of the compounds to be tested on the expression of STING pathway cytokine hIFN-β at the cellular level.
THP1 cells (Nanjing Cobioer) in the logarithmic phase were centrifuged, and resuspended in a cell culture solution to a density of 8×10^6 cells/ml. The cell suspension was inoculated into a 24-well cell culture plate (Corning) at 250 μL/well.
The mother liquor of the compound to be tested was diluted with a cell culture solution to obtain a 2× working concentration diluted solution (control compounds 1 and 2 were diluted at a 2-fold gradient: 200, 100, 50, 25, 12.5, 6.25, 3.125, 1.5625 and 0 μM; and compounds 4, 6, and 8 were diluted at a 3-fold gradient: 200, 66.67, 22.22, 7.41, 2.47, 0.82, 0.27, 0.091 and 0 μM). The 2× working concentration diluted solution of the compound was added into 24-well plate (250 μl of the culture solution containing 2% DMSO was added into the negative control well) at 250 μL/well. The culture plate was placed in a cell culture incubator, and incubated for 8 hours. After the cell incubation, the supernatant was collected by centrifugation at 300 g×5 min, and the hIFN-β content (pg/ml) in the cell culture supernatant was detected according to the operating instructions of the VeriKine Human […] ELISA kit from PBL (obtained by conversion of the […] absorbance-hIFN-β standard concentration standard curve and the OD450 nm absorbance value read by the microplate reader). […] was calculated through log(agonist) vs. response—Variable slope fitting by the Graphpad Prism software, and the experimental results are shown in Table 2.
In the table, EC50 refers to the concentration of a compound when the expression of hIFN-β generated by stimulation of the compound reaches half of Emax and Emax refers to the highest expression of hIFN-β generated by stimulation of the compound.

[4] = tested on: STING pathway cytokine mIFN-β in mouse Raw264.7 cells; assay: ELISA of STING pathway cytokine mIFN-β expression in mouse Raw264.7 cells; format: cell-based; conditions: 6 h, ELISA; for Emax: highest expression of mIFN-β; for pEC50: mIFN-β expression
Text: In this experiment, the expression of STING signal pathway cytokine mIFN-β was detected in Raw264.7 cells (Nanjing Cobioer) by the ELISA method, so as to evaluate the agonistic effect of the compound to be tested on the expression of STING pathway cytokine mIFN-β at the cellular level.
Raw264.7 cells (Nanjing Cobioer) in the logarithmic phase were centrifuged, and resuspended in a cell culture solution to a density of 1.6×10^6 cells/ml. The cell suspension was inoculated into a 24-well cell culture plate (Corning) at 250 μL/well. The mother liquor of the compound to be tested was gradiently diluted with a cell culture solution to obtain a 2× working concentration diluted solution (control compound 1 was diluted at a 3-fold gradient: 200, 66.67, 22.22, 7.41, 2.47, 0.82, 0.27 and 0 μM; control compound 2 was diluted at a 2-fold gradient: 200, 100, 50, 25, 12.5, 6.25, 3.125 and 0 μM; and compounds 4, 6 and 8 were diluted at a 4-fold gradient: 200, 50, 12.5, 3.13, 0.78, 0.20, 0.049 and 0 μM). The 2× working concentration diluted solution of the compound was added into a 24-well plate (250 μl of the culture solution containing 2% DMSO was added into the negative control well) at 250 μL/well. The culture plate was then placed in a cell incubator, and incubated for 6 h. After the cell incubation, the supernatant was collected by centrifugation at 300 g×5 min, and the mIFN-β content (pg/ml) in the cell culture supernatant was detected according to the operating instructions of the VeriKinem Mouse IFN Beta ELISA Kit from PBL (obtained by conversion of the OD450 nm absorbance-mIFN-β standard concentration standard curve and the OD450 nm absorbance value read by the microplate reader). EC50 was calculated through log(agonist) vs. response—Variable slope fitting by the Graphpad Prism software, and the experimental results are shown in Table 3.
In the table, EC50 refers to the concentration of a compound when the expression of mIFN-β generated by stimulation of the compound reaches half of Emax; and Emax refers to the highest expression of mIFN-β generated by stimulation of the compound.

hSTING protein = target: T1, hSTING protein (Homo sapiens, UniProt Q86WV6); assay: Human STING binding kit (HTRF) competitive binding assay
T1 construct: purchased Cisbio
T1 sequence (Q86WV6 whole entry H232R): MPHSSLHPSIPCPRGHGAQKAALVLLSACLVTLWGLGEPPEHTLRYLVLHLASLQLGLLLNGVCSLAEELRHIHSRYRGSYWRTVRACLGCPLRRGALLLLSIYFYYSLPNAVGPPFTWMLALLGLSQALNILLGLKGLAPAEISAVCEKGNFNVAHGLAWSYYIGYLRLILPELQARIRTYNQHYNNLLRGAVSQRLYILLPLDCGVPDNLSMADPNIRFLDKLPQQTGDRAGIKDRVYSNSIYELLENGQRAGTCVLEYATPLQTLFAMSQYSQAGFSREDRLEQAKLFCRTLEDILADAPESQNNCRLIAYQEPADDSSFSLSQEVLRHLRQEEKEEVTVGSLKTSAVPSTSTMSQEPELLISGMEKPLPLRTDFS
Text: In this experiment, the capability of the compound and the specific ligand (d2-STING-ligand) in a Human STING binding kit from Cisbio for competitively binding to the 6×His-hSTING protein was detected using the Human STING binding kit (HTRF method), so as to evaluate the binding affinity between the compound to be tested and the hSTING protein.
The compound was gradiently diluted with a dilution buffer in the Human STING binding kit (the diluent buffer reagent) to obtain a 4× working concentration diluted solution. […] The 6×His-hSTING protein (50× in the mother liquor) was diluted to 1× with the detection buffer in the Human STING binding kit (the detection buffer reagent). 5 μl of the diluted solution was added into the corresponding wells of a 384-well plate, and the well with no protein and no compound was set as a negative control well (min), while the well with the protein and no compound was set as a positive control well (max). The d2-STING-ligand and Tb^3+-anti-6×His-antibody (both 50× in the mother liquor) were diluted to 1× with the detection buffer in the Human STING binding kit (the detection buffer reagent), and mixed uniformly at a ratio of 1:1. 10 μl of the mixed solution was added to the corresponding wells of a 384-well plate. The plate was sealed and incubated at room temperature (25° C.) for 3 h. A BMG microplate reader was used to read HTRF, and the ratio was calculated according to the following formula: Ratio=signal665nm/signal620nm×10000. […] IC50 was calculated through log(inhibitor) vs. response—Variable slope fitting by the Graphpad Prism software.

pEC50 ([1]; Homo sapiens)	pKi (hSTING protein; calculated as Ki=1/2*IC50 per kit instructions)	pIC50 (hSTING protein; competition with d2-STING-ligand for 6×His-hSTING, HTRF, 3 h at 25° C.)	SMILES	Emax (OD620nm) [1]	agonistic effect on the STING-mediated Interferon (IFN) signal pathway [1]	agonistic effect on the phosphorylation levels of STING, TBK1 and IRF3 [2]	pEC50 [3]	Emax [3]	Emax [4]	pEC50 [4]	pEC50 [1]
9.24			CCOC(=O)CCC(=O)c1cc2cc(OC)c(OCCCOc3cc4sc(C(=O)N(C)CCC(=O)OCC)cc4cc3OC)cc2s1 [Compound 1, ethyl 4-(6-(3-((2-((3-ethoxy-3-oxopropyl)(methyl)carbamoyl)-5-methoxybenzo[b]thiophen-6-yl)oxy)propoxy)-5-methoxybenzo[b]thiophen-2-yl)-4-oxobutyrate]	1.54 OD620nm	strong agonistic effects	strong agonistic effects					
5.31	5.72	5.42	COc1cc2cc(C(=O)CCC(=O)O)sc2cc1OC [Control Compound 2, reference compound]	1.49 OD620nm			4.77	1373.9 pg/mL	1106.15 pg/mL	4.61	
			Nc1ncnc2c1ncn2[C@@H]1O[C@@H]2COP(=O)([S-])O[C@@H]3[C@H](O)[C@@H](COP([O-])(=S)O[C@H]2[C@H]1O)O[C@H]3n1cnc2c(N)ncnc21.[Na+].[Na+] (stereo partly shown) [Control Compound 1, ADU-S100, reference compound]	2.03 OD620nm			4.85	1476.6 pg/mL	1248.94 pg/mL	5.56	5.41
			CCOC(=O)CCC(=O)c1cc2cc(OC)c(OCCCOc3cc4cc(C(=O)N(C)CCC(=O)OCC)sc4cc3OC)cc2s1 [Compound 3]	1.92 OD620nm	strong agonistic effects	strong agonistic effects					8.45

Reference: patent publication US12269816B2, “Benzothiophene compound, preparation method therefor and use thereof” (SICHUAN KELUN-BIOTECH BIOPHARMACEUTICAL CO., LTD., priority 2019, dated 2025)
